Reference: patent US12285407B2, “Bis-indolylmethane derivatives and uses thereof” (The University of The West Indies, priority 2018, dated 2025)
Read-outs that look alike come from different tables or passages of the source.

Tests used:
MRSA = test: Adjuvant broth microdilution (antibiotic MIC with SP-BIM at 50 μg/mL); format: cell-based, Staphylococcus aureus; settings: Staphylococcus aureus, antibiotic alone, Table 4, read-out: MIC of antibiotic, No compound
Klebsiella pneumoniae = test: as above; format: cell-based; settings: Klebsiella pneumoniae; antibiotic alone; Table 7; read-out: MIC of antibiotic, No compound
[1] = test system: Streptococcus pyogenes ATCC 19615; test: Broth microdilution MIC of SP-BIMs; format: cell-based
[2] = test system: Bacillus cereus ATCC 14579; test: Broth microdilution MIC of SP-BIMs; format: cell-based
[3] = test system: Enterococcus faecium ATCC 19434; test: Broth microdilution MIC of SP-BIMs; format: cell-based
[4] = test system: Corynebacterium diphtheriae ATCC 27010; test: Broth microdilution MIC of SP-BIMs; format: cell-based
[5] = test system: Staphylococcus aureus ATCC 12600; test: Broth microdilution MIC of SP-BIMs; format: cell-based
[6] = test system: Klebsiella pneumoniae ATCC 49472; test: Broth microdilution MIC of SP-BIMs; format: cell-based
[7] = test system: Escherichia coli ATCC 35218; test: Broth microdilution MIC of SP-BIMs; format: cell-based
[8] = test system: Salmonella typhimurium ATCC 14028; test: Broth microdilution MIC of SP-BIMs; format: cell-based; settings: Salmonella enterica, read-out: MIC Salmonella tvpkimurium ATCC 14028
Excerpt: Reference microorganisms used in this study included: Bacillus cereus (American Type Culture Collection (ATCC) No. 14579), Streptococcus pyogenes (ATCC No. 19615), Staphylococcus aureus (ATCC No. 12600), Enterococcus faecium (ATCC No. 19434), Corynebacterium diphtheriae (ATCC No. 27010), Escherichia coli (ATCC No. 35218), Salmonella typhimurium (ATCC No. 14028), Pseudomonas aeruginosa (ATCC No. 27853), Klebsiella pneumoniae (ATCC No. 49472), and Candida albicans (ATCC No. 22972).
Prior to each experiment, cultures were streaked onto clean BHI agar plates and incubated at 35° C. for 24 hours. Colonies of the respective cultures were selected and inoculated in phosphate buffer saline (pH 7.5) to a 0.5 McFarland turbidity standard (equivalent to 10^8 CFU mL^−1). The bacterial suspension was then diluted 1:100 in cation adjusted Mueller Hinton Broth (ca-MHB) (Oxoid Ltd, Basingstoke, Hampshire, England).
Stock solutions (50 mg mL^−1) of the SP-BIM test compounds were prepared in DMSO and stored at 4° C. Working preparations of each compound was made up to 1 mg/mL in sterile deionized water with a final DMSO concentration of 10%.
To assess the antibiotic properties of the library of SP-BIMs, the broth microdilution assay was performed in 96-well microplates according to the Clinical and Laboratory Standards Institute 2014 Guidelines (CLSI 2014). The broth microdilution assay was used to determine the minimum inhibitory concentration (MIC). […] Bacterial cells (˜10^6 CFU mL^−1) were inoculated into cation adjusted-Mueller Hinton broth containing the test compound in a twofold serial dilution ranging between 250 μg mL^−1 and 0.02 μg mL^−1. Plates were incubated at 35° C. for 18 hours after which 50 μL of 5% resazurin solution was added to each well. Resazurin is a blue dye which, upon reduction by living cells, turns to a pink resorufin product. Plates were shaken for 1 hour after the addition of the dye. The MIC was recorded as the well with the lowest concentration of test compound where no color change was observed.

[9] = test system: Pseudomonas aeruginosa ATCC 27853; test: Broth microdilution MIC of SP-BIMs; format: cell-based
[10] = test system: Candida albicans ATCC 22972; test: Broth microdilution MIC of SP-BIMs; format: cell-based
Streptococcus pneumoniae = test: Adjuvant broth microdilution (antibiotic MIC with SP-BIM at 50 μg/mL); format: cell-based; settings: Streptococcus pneumoniae, Streptococcus pneumonia, SP-BIM at 50 μg mL^−1
[11] = ATCC19615, SP-BIM alone, read-out: MIC Streptococcus pyogenes ATCC 19615
[12] = ATCC14579, SP-BIM alone, read-out: MIC Bacillus cereus ATCC 14579
[13] = ATCC19434, SP-BIM alone, read-out: MIC Enterococcus faecium ATCC 19434
[14] = ATCC27010, SP-BIM alone, read-out: MIC Corynebacterium diphtheriae ATCC 27010
[15] = ATCC12600, SP-BIM alone, read-out: MIC Staphylococcus aureus ATCC 12600
[16] = ATCC49472, SP-BIM alone, read-out: MIC Klebisella pneumoniae ATCC 49472
[17] = ATCC35218, SP-BIM alone, read-out: MIC Escherichia coli ATCC 35218
[18] = ATCC27853, SP-BIM alone, read-out: MIC Pseudomonas aeruginosa ATCC 27853
[19] = ATCC22972, SP-BIM alone, read-out: MIC Candida albicans ATCC 22972
[20] = read-out: MIC of Kanamvcin with SP-BIM
[21] = read-out: MIC of Vancomvcin with SP-BIM

Row | Structure (SMILES) | MIC [1, 11] [mg/L] | MIC [2, 12] [mg/L] | MIC [3, 13] [mg/L] | MIC [4, 14] [mg/L] | MIC [5, 15] [mg/L] | MIC [6, 16] [mg/L] | MIC [7, 17] [mg/L] | MIC [8] [mg/L] | MIC [9, 18] [mg/L] | MIC [10, 19] [mg/L] | MIC (Streptococcus pneumoniae; [20]) [mg/L] | MIC (Streptococcus pneumoniae; [21]) [mg/L] | further results
1 | C[C@@H](O)[C@H]1C(=O)N2C(C(=O)O)=C(SCCN=CN)C[C@H]12 [Imipenem, imipenem] | – | – | – | – | – | – | – | – | – | – | – | – | MIC (MRSA): 4 mg/L; MIC (Klebsiella pneumoniae): 2 mg/L
2 | O=[N+]([O-])c1ccc(C(c2c[nH]c3ccccc23)c2c[nH]c3ccccc23)cc1 [SP-BIM 8] | > 250 | > 250 | > 250 | > 250 | > 250 | > 250 | > 250 | 250 | 250 | 250 | 125 | 1 | –
3 | COc1ccccc1C(c1c[nH]c2ccccc12)c1c[nH]c2ccccc12 [SP-BIM 12, bis(indol-3-yl)-2-methoxyphenylmethane] | > 250 | > 250 | > 250 | > 250 | > 250 | > 250 | > 250 | 250 | 250 | 250 | 125 | 1 | –
4 | c1ccc2c(c1)cc(C(c1c[nH]c3ccccc13)c1c[nH]c3ccccc13)c1ccccc12 [SP-BIM 14, bis[indol-3-yl)-phenanthren-9-ylmethane] | – | – | – | – | – | – | – | 250 | – | – | 125 | 1 | MIC ([1]; ATCC19615, read-out: MIC Streptococcus pyogenes ATCC 19615): 125 mg/L; MIC ([2]; ATCC14579, read-out: MIC Bacillus cereus ATCC 14579): 125 mg/L; MIC ([3]; ATCC19434, read-out: MIC Enterococcus faecium ATCC 19434): 125 mg/L; MIC ([4]; ATCC27010, read-out: MIC Corynebacterium diphtheriae ATCC 27010): > 250 mg/L; MIC ([5]; ATCC12600, read-out: MIC Staphylococcus aureus ATCC 12600): > 250 mg/L; MIC ([6]; ATCC49472, read-out: MIC Klebisella pneumoniae ATCC 49472): > 250 mg/L; MIC ([7]; ATCC35218, read-out: MIC Escherichia coli ATCC 35218): > 250 mg/L; MIC ([9]; ATCC27853, read-out: MIC Pseudomonas aeruginosa ATCC 27853): 250 mg/L; MIC ([10]; ATCC22972, read-out: MIC Candida albicans ATCC 22972): 250 mg/L
5 | Oc1cc(Br)ccc1[C+](c1c[nH]c2ccccc12)c1c[nH]c2ccccc12 [SP-BIM 17, 4-bromo-2-hydroxyphenylbis(indol-3-yl)methylium] | > 250 | > 250 | > 250 | > 250 | > 250 | > 250 | > 250 | 250 | 250 | 250 | 125 | 1 | –
6 | COc1ccc2c(C(c3cccc(O)c3)c3c[nH]c4cc(OC)ccc34)c[nH]c2c1 [SP-BIM 19, bis(6-methoxyindoly-3-yl)-3-hydroxyphenylmethane] | > 250 | > 250 | > 250 | > 250 | > 250 | > 250 | > 250 | 250 | 250 | 250 | 125 | 1 | –
7 | COc1ccc2c(C(c3ccc([N+](=O)[O-])cc3)c3c[nH]c4cc(OC)ccc34)c[nH]c2c1 [SP-BIM 20, bis(6-methoxyindol-3-yl)-4-nitrophenylmethane] | > 250 | > 25 | > 250 | > 250 | > 250 | > 250 | > 250 | 250 | 250 | 250 | 125 | 1 | –
